Assay [1] addresses T1, ZMPSTE24 (Homo sapiens, UniProt O75844).
T1 sequence (O75844 1-475): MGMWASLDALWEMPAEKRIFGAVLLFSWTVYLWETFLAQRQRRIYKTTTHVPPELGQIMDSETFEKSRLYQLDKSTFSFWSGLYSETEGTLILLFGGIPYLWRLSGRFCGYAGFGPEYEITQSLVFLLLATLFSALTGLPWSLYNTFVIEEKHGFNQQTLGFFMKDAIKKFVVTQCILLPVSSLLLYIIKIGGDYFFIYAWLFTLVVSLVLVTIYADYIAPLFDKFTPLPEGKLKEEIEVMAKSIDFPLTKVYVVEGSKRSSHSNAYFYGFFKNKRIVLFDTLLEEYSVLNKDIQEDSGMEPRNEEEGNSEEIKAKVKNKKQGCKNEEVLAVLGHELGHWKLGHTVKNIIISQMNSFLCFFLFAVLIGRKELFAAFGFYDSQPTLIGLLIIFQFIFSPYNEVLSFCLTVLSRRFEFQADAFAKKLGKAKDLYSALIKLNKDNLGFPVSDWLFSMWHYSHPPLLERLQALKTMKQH
Put plainly: native mass spectrometry. It is filed as binding. The settings on record: 15 μM drug, equimolar ZMPSTE24, C8E4.

Assay [2] addresses T1, ZMPSTE24. As to the kind of experiment: native mass spectrometry titration. The format is binding.

What is called Kd is a measure of binding affinity in units of concentration. Read a low Kd as a tighter complex.

As to `CC(C)CN(C[C@@H](O)[C@H](Cc1ccccc1)NC(=O)O[C@H]1CCOC1)S(=O)(=O)c1ccc(N)cc1` [amprenavir], the “binding observed at 15 μM” value in assay [1] was “binding of amprenavir and ritonavir were observed, albeit in lower amounts”.

Take `Cc1cccc(C)c1OCC(=O)N[C@@H](Cc1ccccc1)[C@@H](O)C[C@H](Cc1ccccc1)NC(=O)[C@H](C(C)C)N1CCCNC1=O` [lopinavir]: in assay [2], the Kd was 25 ± 1.2 µM.

Source of the values: publication PMC5123592 (Nature chemistry, 2016).
